The source of these data is patent US8354414B2, “Substituted bicyclic pyrimidines” (Cephalon, Inc, priority 2006, dated 2013).

The IC50 is the midpoint of a concentration-inhibition curve.

Counter-ions that a name gives are not always drawn. Like-named read-outs stand apart in the source and are kept apart here. Where only a bound is given, the exact number is not on record here.

In one assay the target is T1, His6-GSK-3β (Homo sapiens, UniProt P49841).
T1 construct: made in house; host or cells: Sf21 insect cells (baculovirus)
T1 sequence (P49841 2-419): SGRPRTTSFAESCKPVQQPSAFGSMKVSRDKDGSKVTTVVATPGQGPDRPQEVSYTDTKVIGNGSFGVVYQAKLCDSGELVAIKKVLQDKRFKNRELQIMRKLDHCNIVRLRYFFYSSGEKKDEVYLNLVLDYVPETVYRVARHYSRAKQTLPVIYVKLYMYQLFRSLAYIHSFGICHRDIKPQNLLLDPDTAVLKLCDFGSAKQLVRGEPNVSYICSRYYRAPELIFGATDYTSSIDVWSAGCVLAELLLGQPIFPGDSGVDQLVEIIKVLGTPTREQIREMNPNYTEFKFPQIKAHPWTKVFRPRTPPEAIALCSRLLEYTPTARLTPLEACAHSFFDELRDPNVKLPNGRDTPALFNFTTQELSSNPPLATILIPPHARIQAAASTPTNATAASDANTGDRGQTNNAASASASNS
As to the kind of experiment: Inhibition of His6-GSK-3β kinase activity (ELISA-based format, time-resolved fluorescence readout). The conditions noted are these: read-out: GSK3β IC50. Format: biochemical. The text has this:
Full-length GSK-3β was amplified from a sequence-verified I.M.A.G.E. EST acquired from Research Genetics (Invitrogen, Clone ID# CSODB003YJ02). The final sequence-verified cDNA contained the coding region for a NH2-terminal tag, which encoded for 6 histidines and then eight vector-encoded amino acids prior to the start of GSK3β, which contained by # 43-1342 of Genbank Accession # NM_002093, encoding amino acids #2-419. The predicted molecular weight of the tagged, 435 amino acid, full-length protein is 48.5 kDa. The major structural element of this protein is the kinase domain, which is from amino acids #56-340. Recombinant baculoviral DNA was prepared by transposition in E. coli (BAC-TO-BAC system: Invitrogen) and the virus generated and amplified in Sf21 insect cells. A suspension culture of Sf21 cells was infected at an MOI of 0.7 and cell density of 1.5×10^6 cells/mL in Excell 420 serum-free media (JRH BioScience) and harvested 65 h after infection. The 100,000×g supernatant solution was used for purification. Expression was confirmed by running samples on SDS-PAGE, followed by immunoblot analysis utilizing both a Penta-HIS antibody (Qiagen #34660) and a GSK-3α/GSK-3β antibody (Calbiochem #368662, data not shown). The His6-tagged protein was purified to in one step by Ni-NTA affinity chromatography.
Inhibitory effects of compounds on baculoviral GSK-3β kinase activity were evaluated using an ELISA-based format in a 384-well FluoroNunc Maxisorp plate (Cat # 460372) with a time-resolved fluorescence readout. Briefly, each plate was coated with 50 μl/well of 20 μg/ml substrate solution (recombinant GST-Rb) in Tris-buffered saline (TBS). The GSK-3β assay mixture (total volume=50 μl/well) consisting of 50 mM HEPES (pH 7.2), 20 μM ATP, 10 mM MgCl2, 5 mM EGTA, 25 mM β-glycerophosphate, 0.05% BSA, 2.5% DMSO, and various concentrations of test compound were then added to the assay plate. Enzyme (200 ng/ml His6-GSK-3β) was then added and the reaction was allowed to proceed at 37° C. for 30 minutes. Detection of the phosphorylated product was performed by adding 50 μl/well of phospho-Rb (Ser-780) antibody (Cell Signaling # 9307) diluted 1:10,000 in antibody dilution buffer (0.1% BSA in TBST). After 1-hour incubation at 37° C., 50 μl/well of Eu-N1 labelled anti-rabbit antibody (Wallac # AD0105; 1:50,000 in antibody dilution buffer) was added. Incubation at 37° C. then proceeded for 1 hour, followed by addition of 50 μl enhancement solution (Wallac #1244-105). The plate was gently agitated and after a few minutes, the fluorescence of the resulting solution was measured using a Multilabel Reader (Victor2 Model # 1420-018 or Envision Model 2100). Inhibition data were analyzed using ActivityBase and IC50 curves were generated using XLFit 3.0.5.
Background: In an ELISA, binding on a coated surface is turned into a signal by an enzyme label.

The target of a further assay is T2, CDK5/GST-p25 (Homo sapiens, UniProt Q00535).
T2 construct: The final construct, encoding for full-length human CDK5; made in house; host or cells: Sf21 insect cells (baculovirus co-infection)
T2 sequence (Q00535 whole entry): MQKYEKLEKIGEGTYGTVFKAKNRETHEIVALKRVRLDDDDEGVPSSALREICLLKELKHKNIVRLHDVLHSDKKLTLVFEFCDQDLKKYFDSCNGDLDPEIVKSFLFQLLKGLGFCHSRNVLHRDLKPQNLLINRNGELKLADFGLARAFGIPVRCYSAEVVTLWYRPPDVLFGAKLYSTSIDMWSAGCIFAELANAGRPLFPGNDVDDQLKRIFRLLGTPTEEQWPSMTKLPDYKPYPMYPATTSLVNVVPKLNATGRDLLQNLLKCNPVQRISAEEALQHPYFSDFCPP
T2 sequence (Q15078 108-307 partner limits assumed): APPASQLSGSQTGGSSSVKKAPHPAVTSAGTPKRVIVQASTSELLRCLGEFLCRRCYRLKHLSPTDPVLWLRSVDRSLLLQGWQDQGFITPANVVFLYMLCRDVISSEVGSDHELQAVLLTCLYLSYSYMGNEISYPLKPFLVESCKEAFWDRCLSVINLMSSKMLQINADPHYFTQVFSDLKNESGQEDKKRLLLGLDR
Put plainly: Inhibition of CDK5/GST-p25 kinase activity (ELISA with time-resolved fluorescence readout). In kind it is biochemical. The protocol:
Two recombinant baculoviral constructs were created, one encoding for human CDK5 and the other encoding for human p25 with an amino-terminal glutathione-S-transferase (GST) tag. PCR amplification of full-length CDK5 was performed utilizing human brain cDNA as a template and Pfu Turbo polymerase (Strategene). The PCR product from this reaction was subcloned into the baculoviral expression vector pFASTBAC1 (Gibco/BRL). The final construct, encoding for full-length human CDK5 (base pairs 25-903 of GenBank Accession #NM_004935), is 292 amino acids long with a predicted MW of 33.3 kDa.
For p25, the active truncated form of p35, amino acids 108-307 were PCR-amplified from human fetal brain cDNA (Clontech QUICK-Clone cDNA) using the Advantage 2 PCR system (Clontech). The PCR product was subcloned into the baculoviral transfer vector pFBGSTP (an engineered derivative of the baculoviral transfer vector pFASTBAC1). The final baculoviral construct encodes for base pairs 419-1021 of GenBank Accession #NM_003885, with an amino-terminal GST tag. The expressed GST-p25 is 444 amino acids long with a predicted MW of 50.3 kDa.
The CDK5/GST-p25 complex was generated by coexpression. Sf21 cells were cultured in TNM-FHS media at a density of 1.5×10^6 cells/mL and infected with each recombinant virus at MOI values of 5 (for CDK5) and 10 (for GST-p25). The cells were harvested 40 h after infection. For purification, the 100,000×g supernatant solution was used. Expression was confirmed by running samples on SDS-PAGE, followed by immunoblot analysis utilizing antibodies against CDK5 (anti-CDK5 (268-283); Calbiochem #219449) and p35 (Santa Cruz #sc820). The CDK5/GST-p25 complex was purified by glutathione affinity chromatography.
Compounds were tested for their ability to inhibit the kinase activity of recombinant baculoviral CDK5/GST-p25 using an enzyme-linked immunosorbent assay (ELISA) with time-resolved fluorescence (TRF) readout. Briefly, each 384-well FluoroNunc Maxisorp plate (Cat # 460372) plate was coated with 50 μl/well of 50 μg/ml substrate solution (recombinant GST-Rb(773-928)) in Tris-buffered saline (TBS). The CDK5/GST-p25 assay mixture (total volume=50 μl/well) consisting of 20 mM HEPES (pH 7.2), 10 μM ATP, 10 mM MgCl2, 5 mM EGTA, 25 mM β-glycerophosphate, 0.05% BSA, 2.5% DMSO, and various concentrations of test compound were then added to the assay plate. Enzyme (2 ng/ml CDK5/GST-p25) was added and the reaction was allowed to proceed at 37° C. for 20 minutes. Detection of the phosphorylated product was performed by adding 50 μl/well of phospho-Rb (Ser-780) antibody (Cell Signaling # 9307) diluted 1:10,000 in antibody dilution buffer (0.1% BSA in TBST). After 1-hour incubation at 37° C., 50 μl/well of Eu-Nl labelled anti-rabbit antibody (Wallac # AD0105; 1:50,000 in antibody dilution buffer) was added. Incubation at 37° C. then proceeded for 1 hour, followed by addition of 50 μl enhancement solution (Wallac #1244-105). The plate was gently agitated and after a few minutes, the fluorescence of the resulting solution was measured using a Multilabel Reader (Victor2 Model # 1420-018 or Envision Model # 2100). Inhibition data were analyzed using ActivityBase and IC50 curves were generated using XLFit 3.0.5.

Turning to `CCCn1cc2c(C3C(=O)Nc4ccc(C)cc43)nc(NCCCOC)nc2n1` (stereo not shown) [Example 310, 3-[6-(3-Methoxy-propylamino)-2-propyl-2H-pyrazolo[3,4-d]pryrimidin-4-yl]-5-methyl-1,3-dihydro-indol-2-one], the IC50 at His6-GSK-3β (class symbols) and against CDK5/GST-p25 (class symbols) was 300 to 3000 nM each time.
With `CCCCN1CCC(CNc2nc(C3C(=O)Nc4ccc(Cl)cc43)c3cn(C4CCCC4)nc3n2)CC1` (stereo not shown) [Example 275, 3-{6-[(1-Butyl-piperidin-4-ylmethyl)-amino]-2-cyclopentyl-2H-pyrazolo[3,4-d]pyrimidin-4-yl}-5-chloro-1,3-dihydro-indol-2-one], the IC50 was less than 300 nM on His6-GSK-3β (class symbols) and greater than 10000 nM at CDK5/GST-p25 (class symbols).
Taken in the same sequence, the figures for `N#Cc1ccc2c(c1)C(c1nc(NCc3ccncc3)nc3nn(C4CCCC4)cc13)C(=O)N2` (stereo not shown) [Example 176, 3-{2-Cyclopentyl-6-[(pyridin-4-ylmethyl)-amino]-2H-pyrazolo[3,4-d]pyrimidin-4-yl}-2-oxo-2,3-dihydro-1H-indole-5-carbonitrile] were less than 300 nM and less than 300 nM.
Regarding `N#Cc1ccc2c(c1)C(c1nc(NCc3ccccn3)nc3nn(C4CCCC4)cc13)C(=O)N2` (stereo not shown) [Example 123, 3-{2-cyclopentyl-6-[(pyridin-2-yl-methyl)amino]-2H-pyrazolo[3,4-d]pyrimidin-4-yl}-2-oxo-2,3-dihydro-1H-indole-5-carbonitrile], the half-maximal inhibitory concentration (IC50) on His6-GSK-3β (class symbols) and against CDK5/GST-p25 (class symbols) was less than 300 nM in each case.
For the compound `C=CCNc1nc(C2C(=O)Nc3ccc(Br)cc32)c2cn(CCC)nc2n1` (stereo not shown) [Example 193, 3-(6-Allylamino-2-propyl-2H-pyrazolo[3,4-d]pyrimidin-4-yl)-5-bromo-1,3-dihydro-indol-2-one], the IC50 on His6-GSK-3β (class symbols) and on CDK5/GST-p25 (class symbols) was less than 300 nM in each case.
Consider `CN1CCN(c2ccc(Nc3nc(C4C(=O)Nc5ccc(C#N)cc54)c4cn(C5CCCC5)nc4n3)cn2)CC1` (stereo not shown) [Example 137, 3-{2-cyclopentyl-6-[6-(4-methyl-piperazin-1-yl)-pyridin-3-yl-amino]-2H-pyrazolo [3,4-d]pyrimidin-4-yl}-2-oxo-2,3-dihydro-1H-indole-5-carbonitrile], for which the IC50 at His6-GSK-3β (class symbols) was less than 300 nM; against CDK5/GST-p25 (class symbols), greater than 10000 nM.
In the case of `O=C1Nc2ccc(F)cc2C1c1nc(NCc2ccncc2)nc2c1CCC2` (stereo not shown) [Example 320, 5-Fluoro-3-{2-[(pyridin-4-ylmethyl)-amino]-6,7-dihydro-5H-cyclopentapyrimidin-4-yl}-1,3-dihydro-indol-2-one], the IC50 at His6-GSK-3β (numeric bounds) and against CDK5/GST-p25 (numeric bounds) was greater than 3000 nM throughout.
As for `N#Cc1ccc2c(c1)C(c1nc(NCCc3ccccc3)nc3nn(C4CCCC4)cc13)C(=O)N2` (stereo not shown) [Example 134, 3-(2-cyclopentyl-6-2-phenethylamino-2H-pyrazolo [3,4-d]pyrimidin-4-yl)-2-oxo-2,3-dihydro-1H-indole-5-carbonitrile], the IC50 on His6-GSK-3β (class symbols) was less than 300 nM; against CDK5/GST-p25 (numeric bounds), greater than 3000 nM.
The matching figures for `O=C1Nc2ccc(Br)cc2C1c1nc(NCCN2CCOCC2)nc2c1CCC2` (stereo not shown) [Example 332, 5-Bromo-3-[2-(2-morpholin-4-yl-ethylamino)-6,7-dihydro-5H-cyclopentapyrimidin-4-yl]-1,3-dihydro-indol-2-one]: 300 to 3000 nM and greater than 3000 nM.
In the case of `COCCn1cc2c(C3C(=O)Nc4ccc(Br)cc43)nc(NCCC3CCCNC3)nc2n1` (stereo not shown) [Example 228, 5-Bromo-3-[2-(2-methoxy-ethyl)-6-(2-piperidin-3-yl-ethylamino)-2H-pyrazolo[3,4-d]pyrimidin-4-yl]-1,3-dihydro-indol-2-one], the IC50 on His6-GSK-3β (class symbols) and against CDK5/GST-p25 (class symbols) was less than 300 nM in each case.
As to `CCCn1cc2c(C3C(=O)Nc4ccc(Br)cc43)nc(NCCNC)nc2n1` (stereo not shown) [Example 365, 5-Bromo-3-[6-(2-methylamino-ethylamino)-2-propyl-2H-pyrazolo [3,4-d]pyrimidin-4-yl]-1,3-dihydro-indol-2-one hydrochloride salt], the IC50 on His6-GSK-3β (class symbols) is less than 300 nM; on CDK5/GST-p25 (class symbols) it was 300 to 3000 nM.
With `CCCn1cc2c(C3C(=O)Nc4ccc(Br)cc43)nc(NC[C@@H]3CCCN3)nc2n1` (stereo partly drawn) [Example 361, 5-Bromo-3-{2-propyl-6-[((S)-1-pyrrolidin-2-ylmethyl)-amino]-2H-pyrazolo[3,4-d]pyrimidin-4-yl}-1,3-dihydro-indol-2-one], the IC50 at His6-GSK-3β (class symbols) is less than 300 nM; against CDK5/GST-p25 (numeric bounds) it was greater than 3000 nM.
As for `O=C1Nc2ccc(Cl)cc2C1c1nc(NCc2ccncc2)nc2c1CCC2` (stereo not shown) [Example 326, 5-Chloro-3-{2-[(pyridin-4-ylmethyl)-amino]-6,7-dihydro-5H-cyclopentapyrimidin-4-yl}-1,3-dihydro-indol-2-one], the IC50 on His6-GSK-3β (class symbols) is 300 to 3000 nM; on CDK5/GST-p25 (class symbols) it was greater than 10000 nM.
Taken in the same sequence, the figures for `CN(C)CCNc1nc2c(c(C3C(=O)Nc4ccc(Cl)cc43)n1)CCC2` (stereo not shown) [Example 323, 5-Chloro-3-[2-(2-dimethylamino-ethylamino)-6,7-dihydro-5H-cyclopentapyrimidin-4-yl]-1,3-dihydro-indol-2-one] were greater than 10000 nM and greater than 10000 nM.
The matching figures for `CCCOCCNc1nc2c(c(C3C(=O)Nc4ccc(Br)cc43)n1)CCC2` (stereo not shown) [Example 333, 5-Bromo-3-[2-(2-propoxy-ethylamino)-6,7-dihydro-5H-cyclopentapyrimidin-4-yl]-1,3-dihydro-indol-2-one]: greater than 10000 nM and greater than 10000 nM.
In the case of `CCCCNc1nc(C2C(=O)Nc3ccc(C#N)cc32)c2cn(C3CCCC3)nc2n1` (stereo not shown) [Example 116, 3-(6-butylamino-2-cyclopentyl-2H-pyrazolo [3,4-d]pyrimidin-4-yl)-2-oxo-2,3-dihydro-1H-indole-5-carbonitrile], on His6-GSK-3β (class symbols), the IC50 was less than 300 nM.
